From patent US12161114B2, “Overpowered ABA receptor agonists” (The Regents of the University of California, priority 2018, dated 2024)

Tests used:
[1] = test system: panel of recombinant ABA receptors; PP2C HAB1; experiment: receptor-mediated PP2C inhibition assay, dose response, umbelliferone substrate; assay type: biochemical, Arabidopsis; settings: 4 nM to 50 μM dose response
Method: Each ligand was tested at concentrations spanning 7 points between 4 nM and 50 μM in triplicate in a reaction buffer containing 100 mM Tris-HCl-pH7.9, 100 mM NaCl, 30 μg/ml BSA, 0.1% 2-mercaptoethanol, 25 nM ΔN-HAB1, 1 mM 4-methylumbelliferyl phosphate, and different recombinant ABA receptors at 50 nM or 300 nM (for PYL9 or PYL11). The substrate was added ˜20 minutes after the other components had been mixed and fluorescence data collected. Control carrier solvent-only wells were included as a reference and %-activity for tested compounds calculated relative to this control. The dose response data (PP2C activity versus agonist concentration) was fit to a log (inhibitor) vs. response-(variable slope) model using non-linear regression to infer the IC50S, using GraphPad Prism 6.0, to yield the IC50 values shown in FIG. 6.
The potency and selectivity of ligands 2b, 2e-f was established by testing their ability to activate multiple ABA receptor subtypes using the fluorescence based phosphasted assay as outlined in example 2 at a range of concentrations (4 nM to 50 μM). In addition, we compared ligand potency to ABA, quinabactin and a recently described fluorinated quinabactin analog AMF4, which is reported to have improved potency in comparison toe quinabactin. To conduct the assays purified recombinant receptors were tested at 50 nM or, in the a cases of PYL9 and PYL11, 300 nM and 25 nM ΔN-HAB1. The PP2C-activity dose response data obtained was fit to a log (inhibitor) vs response-(variable slope) model using non-linear regression to infer the IC50S, using GraphPad Prism 6.0, to yield IC50 values as shown in FIG. 12A. […] Moreover, the installation of a single cyclopropyl group ortho to the nitrile (analog 2e) provided a further boost in potency, dramatically so for all subfamily III receptors, PYL4 and PYL11. […] Furthermore, the installation of a second cyclopropyl substituent (analog 2f) provides an even further boot in activity on subfamily III receptors, which comes at the expense of reduced potency on subfamily I receptors. […] 2f is therefore an unusually overpowered ABA receptor agonist, which we refer to as opabactin (Opa).

[2] = test system: wild type Columbia Arabidopsis thaliana seeds; experiment: Arabidopsis seed germination assay; assay type: in vivo; settings: Arabidopsis thaliana
Method: (§1) Prior to selecting a scaffold for optimization we conducted Arabidopsis seed germination assays to establish if the hits obtained are activity in vivo. Germination experiments were performed with surface sterilized wild type Columbia Arabidopsis thaliana seeds and abi1C (the abi1-1 allele isolated in the Columbia ecotype) plated onto 0.7% agar medium containing 1/2-x MS salts, 0.5% sucrose and differing concentrations of the test compounds. After 4d of stratification at 4° C., the plates were transferred to a growth chamber under continuous illumination and evaluated after 4 days.
To establish if the in vitro potency of Opa translates into improved activity in vivo, we measured the effects of ABA, QB, AMF4, Opa and 2e on Arabidopsis seed germination at a range of concentrations to infer quantitative measures or potency. Methods similar to that described in Example 3 are followed. The percentage of germinated seeds were recorded for each chemical treatment for each concentration in quadruplicate. EC50 values denote the concentrations at which 50% of seeds have been inhibited.

[3] = test system: pyr1/pyl1, pyl8/pyl9 and abi1C mutants; experiment: seed germination on receptor mutants and ABA signalling mutant abi1C; assay type: in vivo, Arabidopsis; settings: tested at twice the EC50
Method: as §1
Methods similar to example 3 were followed.

PYL2 = biological target: T1, PYL2 (Arabidopsis thaliana, UniProt O80992); experiment: receptor-mediated PP2C inhibition assay, pnPP substrate, PYL2; assay type: biochemical
T1 construct: 6xHis; made in house
T1 sequence (O80992 1-190): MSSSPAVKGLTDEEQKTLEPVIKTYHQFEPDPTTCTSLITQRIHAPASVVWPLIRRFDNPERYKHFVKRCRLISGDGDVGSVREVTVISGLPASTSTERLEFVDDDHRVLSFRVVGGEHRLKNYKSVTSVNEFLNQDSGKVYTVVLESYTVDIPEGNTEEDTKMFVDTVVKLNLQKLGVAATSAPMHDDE
T1 sequence (Q9CAJ0 180-511 partner): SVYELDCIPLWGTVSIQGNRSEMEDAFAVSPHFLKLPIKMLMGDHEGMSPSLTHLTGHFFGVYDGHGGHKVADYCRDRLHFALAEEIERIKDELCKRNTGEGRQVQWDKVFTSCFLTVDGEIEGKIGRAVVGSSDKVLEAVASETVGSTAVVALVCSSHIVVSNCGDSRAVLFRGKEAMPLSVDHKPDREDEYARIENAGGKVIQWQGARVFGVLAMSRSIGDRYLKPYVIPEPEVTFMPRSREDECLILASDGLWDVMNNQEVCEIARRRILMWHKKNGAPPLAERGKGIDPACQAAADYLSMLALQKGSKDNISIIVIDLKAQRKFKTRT
Method: The potency and selectivity of ligand 10H4, a relatively potent member of scaffold 2, was characterized in separate experiments using an absorbance-based assay using the colorimetric substrate p-nitrophenyl phosphate (pNPP), as follows. Purified proteins (100 nM receptor, 50 nM HAB1) were pre-incubated in 160 μl assay buffer containing (100 mM Tris-HCl-pH7.9, 100 mM NaCl, 0.3 μg/mL BSA, 0.1% 2-mercaptoethanol, and 1 mM MnCl2) with ligands for 30 minutes at room temperature. Reactions were started by adding 40 μL of 25 mM p-NPP in assay buffer after which absorbance measurements were immediately collected at 405 nm on Tecan plate reader. The concentrations tested spanned 4 nM to 10 μM and the dose response data obtained was fit to a log (inhibitor) vs response-(variable slope) model using non-linear regression to infer the IC50S, using GraphPad Prism, to yield the IC50 values shown in FIG. 7.
8, no. 1, October 2017, p. 1183. • Daszkowska-Golec, Agata. […]

[4] = test system: pooled ABA receptors (PYL1, PYL2, PYL4, PYL8, and maize receptor ZmPYLe) with PP2C HAB1; experiment: pooled receptor activation assay (receptor/ligand-mediated inhibition of PP2C HAB1, 4-methylumbelliferyl phosphate); assay type: biochemical, Arabidopsis; maize; settings: tested in duplicate at 20 μM
From the text: The angiosperm ABA receptor family is large and contains many receptors that cluster into 3 subfamilies. Multiple analyses have shown that agonists of subfamily III receptors are particularly efficacious as antitranspirants, however pan agonists or other new selective agonists may be valuable for crop enhancement. In principle, a docking hit molecule might interact with any or all ABA receptors, creating a large matrix of possible interactions and screening conditions. To expedite the process of screening for new ABA agonists, we developed a pooled receptor screening assay. To do this we selected phylogenetically diverse ABA receptors (PYL1, PYL2, PYL4, PYL8, and maize receptor ZmPYLe), pooled them, and assayed receptor/ligand-mediated inhibition of the PP2C HAB1. The Arabidopsis receptors and PP2C ΔN-HAB1 used were expressed and purified using previously described expression clones and methods (Okamoto et al.) PYL1, PYL2, PYL4, and PYL8 were expressed as 6×-His tags in pET28; ΔN-HAB1 was expressed as 6×-His tag as a truncated form lacking residues 1-179 in pETM-11. ZmPylE (GRMZM2G165567; ZmPYL8 in (He et al.)) was expressed as an MBP fusion protein in pMal-c and expressed and purified as described previously for PYL9 and PYL1 in reference (Okamoto et al.). Assays were conducted in a buffer containing 100 mM Tris-HCl-pH7.9, 100 mM NaCl, 30 μg/ml BSA, 0.1% 2-mercaptoethanol, 100 nM PYL1 and PYL2, 900 nM PYL4 and PYL8, 200 nM ZmPylE, 1 mM 4-methylumbelliferyl phosphate, and 20 μM test compound. The substrate was added ˜20 minutes after the other components had been mixed and fluorescence data collected after substrate addition using a Tecan Infinite F200 Pro fluorimeter. Control carrier solvent-only wells were included as a reference and %-PP2C activity calculated relative to this control. To validate this assay we tested multiple selective and pan-agonists to ensure that their activity could reliably be detected. […]

| Compound | effect on germination in receptor mutant backgrounds [3] | activity in the pooled receptor assay [4] | further results |
| --- | --- | --- | --- |
| N#Cc1ccc(CC(=O)NC2(C(=O)O)CCCCC2)cc1 [2b, 1-[2-(4-cyanophenyl)acetamido]cyclohexane-1-carboxylic acid] | – | – | potency in receptor-mediated PP2C inhibition (in words) [1]: dramatically improves activity across all receptors tested |
| N#Cc1ccc(CC(=O)NC2(C(=O)O)CCCCC2)cc1C1CC1 [2e, 1-[2-(4-cyano-3-cyclopropylphenyl)acetamido]cyclohexane-1-carboxylic acid] | clearly reduced in the pyr1/pyl1 and pyl8/pyl9 mutant backgrounds | – | potency in receptor-mediated PP2C inhibition (in words) [1]: high potency across all receptors tested; test concentration (twice the EC50 for germination inhibition) ([2]; printed value is twice the EC50, used as test concentration on mutants, read-out: twice the concentrations determined as its EC50 (inhibition of germination) (converted)): 220 nM |
| CS(=O)(=O)NC(=O)C1(NC(=O)Cc2ccc(C#N)c(C3CC3)c2)CCCCC1 [2r] | – | – | activity on PYL2 (in words) (PYL2): modestly activity on PYL2 |
| CC1=CC(=O)CC(C)(C)[C@@]1(O)/C=C/C(C)=C\C(=O)O [ABA, Abscisic acid] | clearly reduced in the pyr1/pyl1 and pyl8/pyl9 mutant backgrounds | active | EC50 ([2]; read-out: twice the concentrations determined as its EC50 (inhibition of germination)): 600 nM |
| CCCN1C(=O)CCc2cc(NS(=O)(=O)Cc3c(F)c(F)c(C)c(F)c3F)ccc21 [AMF4] | only show diminished activity in the pyr1/pyl1 mutant | – | – |
| O=S(=O)(NCc1ccccn1)c1ccc(Br)c2ccccc12 [pyrabactin] | – | active | – |
| CCCN1C(=O)CCc2cc(NS(=O)(=O)Cc3ccc(C)cc3)ccc21 [quinabactin] | only show diminished activity in the pyr1/pyl1 mutant | active | – |
